This note sets out measurements from PubChem BioAssay AID179 (DTP/NCI, 2004).

The test has as its system CEM cells HIV-1 protection, formazan growth assay. As to the kind of experiment: NCI AIDS Antiviral Assay. The following applies: for IC50: measured here: growth of uninfected CEM cells. In short, it runs like this:
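Human CEM cells, uninfected and HIV-1-infected, received five drug concentrations, and growth was read by soluble formazan assay. Compounds giving at least 50% protection were retested; reproducible 100% protection defined confirmed active.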

Activity calls are given as the source filed them.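 Rule for the calls: active = compounds giving half or more protection of infected cells from virus-caused growth loss, again on retest; inactive = the rest.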

In general, EC50 refers to the concentration needed to bring the measured effect to its halfway point. Broadly, the IC50 is the concentration at which inhibition is half-maximal. Higher therefore signals weaker potency in that assay. For `C=C(C)C1CCC2(C(=O)O)CCC3(C)C(CCC4C5(C)CCC(O)C(C)(C)C5CCC43C)C12` (stereo not given), the EC50 is above 200 µM and the half-inhibitory concentration (IC50) is 66.1 µM.
On the same counts, the results for `Nc1ccc(-c2ccc(N)c(S(=O)(=O)O)c2)cc1S(=O)(=O)O` are above 724 µM and above 724 µM.
For the compound `Nc1ccc(C(=O)O)c2[nH]c3ccccc3c(=O)c12`, the outcome was inactive.
As for `COc1ccc(C(C)=O)cc1CN1CCN(Cc2cc(C(C)=O)ccc2OC)CC1`, the EC50 is above 33.1 µM and the IC50 is above 33.1 µM.
For the compound `COC(=O)C1=C2CCC(=O)[C@@]2(C)CC(C)=C(C)C1`, the result was inactive.
As to `Cc1c(/C=N/NC(=O)c2cc(Br)cc(Br)c2O)c(=O)n(-c2ccccc2)n1C`, the EC50 was above 200 µM and the IC50 is 123 µM.
On the same counts, the results for `Oc1c(C2=NNC(c3cccs3)C2)ccc2ccccc12` (stereo not given) are above 200 µM and 33.1 µM.
The corresponding values for `O=C(c1ccccc1)N1C(=O)c2ccccc21` are above 162 µM and 49 µM.
`COc1ccc(C(=O)O/N=C2\CCCC\C2=C/c2ccccc2)cc1`: the outcome was inactive.
For `N#CCc1nc(-c2cc3ccc(O)cc3oc2=O)cs1`, the EC50 was above 200 µM and the IC50 turned out to be 26.9 µM.
Take `Cc1cc(S(=O)(=O)/N=C(/NN)NNc2cccc(C(F)(F)F)n2)c(S)cc1Cl`: the EC50 is above 200 µM and the IC50 came out at 42.7 µM.
Take `Cc1cc(C)c(-c2noc(-c3ccc(Cl)cc3)c2C2=NCCN2)c(C)c1`: the outcome was inactive.
With `Cc1ccc(S(=O)(=O)OCCC2CN(C(=O)OCc3ccccc3)C(C)(C)O2)cc1` (stereo not given), the EC50 is above 200 µM and the IC50 stood at 14.1 µM.
On to `N#Cc1ccc(C2OCC3CC=CCC3CO2)cc1` (stereo not given), for which the EC50 is above 53.7 µM and the IC50 is above 53.7 µM.
With `CC12C3C4C1C1C2C3C41CO` (stereo not given), the EC50 was above 200 µM and the IC50 was above 200 µM.
As for `COC1CC(OC2C(C)OC(OC3C(C)OC(OC4C(C)OC(O[C@H]5CC[C@@]6(C)C(=CC[C@]7(O)[C@@H]6C[C@@H](OC(=O)/C=C(\C)C(C)C)[C@@]6(C)[C@]7(O)CC[C@@]6(O)C(C)=O)C5)CC4OC)CC3OC)CC2OC)OC(C)C1O` (stereo not given in full), the EC50 is above 200 µM and the half-inhibitory concentration (IC50) turned out to be 27.5 µM.
On to `Cc1ccc(C(=O)Nc2ccc(CP(=O)(O)O)cc2)cc1NC(=O)Nc1cc(C(=O)Nc2ccc(CP(=O)(O)O)cc2)ccc1C`, for which the EC50 is above 50.1 µM and the half-maximal inhibitory concentration (IC50) was above 50.1 µM.
With `COc1ccc(-c2sc(/N=C/c3ccc(N(C)CCC#N)cc3)c(C#N)c2C)cc1OC`, the concentration giving a half-maximal response (EC50) is above 501 µM and the IC50 came to 339 µM.
As to `COc1cc2c(c([N+](=O)[O-])c1)NCCS2`, the EC50 was above 200 µM and the IC50 is above 200 µM.
For the compound `O=c1c2ccccc2c2nccn2c2ccccc12`, the EC50 is 182 µM and the IC50 was above 200 µM.
Consider `CCOc1ccccc1N1C(=O)C(=O)C(c2nc3ccccc3o2)/C(=N\N)C1=O` (stereo not given), for which the outcome was inactive.
Regarding `Cc1ccc(NC(=O)NC23CC4CC(CC(F)(C4)C2)C3)cc1`, the EC50 was above 61.7 µM and the IC50 is above 61.7 µM.
As to `O=C1NC2(O)c3ccccc3C(=O)C2(O)N1c1ccccc1` (stereo not given), the EC50 was above 851 µM and the IC50 was 692 µM.
On to `COc1ccc(OC)c(NC(=O)C(=O)C(C(C)=O)c2nc3ccc(Cl)cc3[nH]c2=O)c1` (stereo not given), for which the EC50 was above 81.3 µM and the IC50 was above 81.3 µM.
On to `CC(=O)C[P+](c1ccccc1)(c1ccccc1)c1ccccc1`, for which the EC50 was above 200 µM and the half-inhibitory concentration (IC50) turned out to be 61.7 µM.
For the compound `O=C(CC1CCN(C(=O)c2ccccc2)C(Cc2c[nH]c3ccccc23)C1O)N1CCCC1` (stereo not given), the EC50 was above 200 µM and the concentration for half-maximal inhibition (IC50) is above 200 µM.
With `C[N+]1(C)C/C(=C\c2ccncc2)C(=O)/C(=C/c2ccncc2)C1`, the outcome was inactive.
With `CNC(=O)c1ccc(NC(=O)Nc2cccc(C3=NCCN3)c2)cc1NC(=O)Nc1cccc(C2=NCCN2)c1`, the EC50 was 28.2 µM and the IC50 amounted to 178 µM.
In the case of `CCOC(=O)C1=C(O)c2c(sc(C)c2-c2ccccc2)N(S(=O)(=O)c2ccc(C)cc2)CC1`, the EC50 was above 100 µM and the IC50 is 4.79 µM.
As for `COc1ccc(C(C#N)NC23CC4CC(CC(C4)C2)C3)cc1` (stereo not given), the outcome was inactive.
With `CCN(CC)P1(=S)OCC(C)O1` (stereo not given), the EC50 was above 324 µM and the half-maximal inhibitory concentration (IC50) amounted to 309 µM.
For the compound `Cc1ccc(S(=O)(=O)C(C#N)c2nc3ccccc3nc2-n2cccn2)cc1` (stereo not given), the EC50 was above 200 µM and the IC50 came out at 126 µM.
The corresponding values for `CN(CCN(C)C(=O)CCn1ccc(=O)[nH]c1=O)C(=O)CCn1ccc(=O)[nH]c1=O` are above 32.4 µM and above 32.4 µM.
Regarding `Cc1ncc(C(N)=O)c2c1OC(C)(C)OC2`, the EC50 was above 200 µM and the IC50 was above 200 µM.
With `CN[C@@H](C)[C@@H](NC)c1ccccc1`, the outcome was inactive.
Take `c1ccc2c(c1)Sc1nccc3ccnc-2c13`: the EC50 is above 200 µM and the IC50 is 13.8 µM.
In the case of `O=[N+]([O-])/N=c1/nc2scc(-c3ccc([N+](=O)[O-])cc3)n2s1`, the EC50 is above 200 µM and the IC50 turned out to be 29.5 µM.
Consider `CCC1CCC2c3c([nH]c4ccc(C)cc34)C3C(=O)N(N(C)C)C(=O)C3C2C1` (stereo not given), for which the EC50 was above 200 µM and the IC50 was above 100 µM.
Regarding `C(=C(c1ccccc1)c1ccccc1)N1CCOCC1`, the EC50 is above 200 µM and the IC50 is above 200 µM.
On to `Cc1ccc([N+](=O)[O-])cc1NC(=O)/C(CC(=O)c1sc(C(N)=S)nc1C)=N\N`, for which the outcome was inactive.
With `NC(=O)C(=O)N/N=C(\CC1(O)C(=O)Nc2ccccc21)c1ccc2ccccc2c1` (stereo not given), the EC50 was above 33.9 µM and the half-inhibitory concentration (IC50) is above 33.9 µM.
For `COC1=C(C)C2CC(=O)OC3CC4C(C)CC(O)C(=O)[C@]4(C)C(C1=O)[C@@]32C` (stereo not given in full), the outcome was inactive.
Consider `C[C@@H]1N[C@@H](C)Cc2c(-c3ccc(O)c4ccccc34)c(O)cc(O)c21`, for which the EC50 is above 200 µM and the IC50 was found to be 30.9 µM.
Turning to `OCCN(CCO)c1cccc(N(CCO)CCO)c1`, the result was inactive.
As for `Oc1ccc([Te]CCNCC[Te]c2ccc(O)cc2)cc1`, the EC50 was above 10 µM and the IC50 was found to be 5.89 µM.
In the case of `N#Cc1nc(-c2ccc(-c3nc(C#N)c(N)o3)cc2)oc1N`, the EC50 is above 200 µM and the half-inhibitory concentration (IC50) was above 200 µM.
In the case of `Cc1ccccc1CN1CC=c2ccccc2=N1`, the EC50 is 51.3 µM and the IC50 came to 129 µM.
As for `Cc1cc2c(cc1Cl)Sc1nccn1S2(=O)=O`, the EC50 was 40.7 µM and the IC50 came out at 79.4 µM.
On to `Cc1cc([N+](=O)[O-])ccc1Nc1cccc(Cl)c1C`, for which the result was inactive.
Regarding `COc1ccc(COCC[C@H](C)OC2OC(CO[Si](C)(C)C(C)(C)C)C(OC(=O)CCCN=[N+]=[N-])C(OC(=O)CCCN=[N+]=[N-])C2OC(=O)CCCN=[N+]=[N-])cc1` (stereo not given in full), the EC50 is above 200 µM and the IC50 was 26.3 µM.
Turning to `CCOC(=O)c1ccc(NC(=O)c2cccc3c(Nc4ccc(S(=O)(=O)Nc5cc(C)on5)cc4)c4ccccc4nc23)cc1`, the EC50 was above 200 µM and the 50% inhibitory concentration (IC50) stood at 4.57 µM.
In the case of `CC1(C)COC(c2c(-c3ccccc3)noc2CS(=O)c2ccccc2)=N1` (stereo not given), the EC50 was above 100 µM and the IC50 amounted to 42.7 µM.
Turning to `CCCCN1C(=O)[C@@H]2[C@H](c3ccccc3O)C(c3ccccc3O)[C@@H]2C1=O` (stereo not given in full), the EC50 is above 138 µM and the IC50 amounted to 30.2 µM.
On the same counts, the results for `COC(=O)[C@H](Cc1ccccc1)NP(=O)(OC)OCC1OC(n2cc(C)c(=O)[nH]c2=O)CC1N=[N+]=[N-]` (stereo not given in full) are 83.2 µM and above 200 µM.
Consider `O=c1oc2c3c4c(cc2c2c1CCC2)CCCN4CCC3`, for which the EC50 is above 6.76 µM and the IC50 was above 6.76 µM.
For `COc1ccc(C=C(C(=O)O)C(=O)O)cc1`, the EC50 was above 1120 µM and the IC50 is above 1120 µM.
With `OCC(O)C(OC1OC(CO)C(O)C(O)C1O)C(O)C(/C=N\Nc1ccccc1)=N/Nc1ccccc1` (stereo not given), the EC50 is above 200 µM and the IC50 is 4.9 µM.
With `CN(C)c1ccc(/C=C(\C#N)c2ccc([N+](=O)[O-])cc2)c(Cl)c1`, the EC50 was above 100 µM and the IC50 turned out to be 75.9 µM.
As to `COC(=O)c1cc(C#N)[nH]c1-c1cc(Br)cs1`, the EC50 is above 200 µM and the IC50 came to 11.7 µM.
Consider `N#Cc1c(N)sc(=S)c2c1CCCC2`, for which the EC50 is above 22.4 µM and the IC50 was above 22.4 µM.
For the compound `O=C1CSC(c2ccccc2)N1c1ccc(-n2c(-c3ccccc3)nc3ccccc3c2=O)cc1` (stereo not given), the EC50 was above 200 µM and the IC50 is 35.5 µM.
On to `O=C(Cc1cccs1)N[C@@H]1C(=O)N2C(C(=O)OC(c3ccccc3)c3ccccc3)=C(CO)CS[C@H]12`, for which the EC50 was above 200 µM and the IC50 was determined as 195 µM.
The corresponding values for `CCOC(=O)CCC(NC(=O)c1ccc(N2CCN(c3c(C)nc(N)nc3N)CC2)cc1)C(=O)OCC` (stereo not given) are above 0.2 µM and 0.0427 µM.
As for `O=C1CS(=O)(=O)CN1N1CS(=O)(=O)CC1=O`, the EC50 was above 200 µM and the IC50 was 110 µM.
The corresponding values for `COC(=O)C1CC(c2ccc(Cl)cc2)=NO1` (stereo not given) are above 282 µM and above 282 µM.
As to `CC(C)=C1C(=O)NC(=O)C1C(N)=O` (stereo not given), the EC50 is above 200 µM and the IC50 was above 200 µM.
On to `CCOC(=O)/C(C#N)=C/c1ccnc2ccccc12`, for which the EC50 is above 200 µM and the IC50 is 3.8 µM.
As for `O=c1[nH]c(-c2ccccc2)nc2c1OCN(Cc1ccccc1)C2`, the EC50 was above 115 µM and the half-inhibitory concentration (IC50) came to 28.8 µM.
Turning to `Cc1ccc(S(=O)(=O)N/N=c2/sc3ccccc3n2C)cc1`, the EC50 was above 200 µM and the IC50 was above 200 µM.
As for `CCCN=C1NC(C)=CSC(Nc2ccccc2)=C1C#N`, the EC50 is above 200 µM and the IC50 is above 200 µM.
For `COc1ccccc1C1ON=C(c2ccc([N+](=O)[O-])cc2)N1C12CC3CC(CC(C3)C1)C2` (stereo not given), the EC50 was above 200 µM and the IC50 was above 200 µM.
